Experimental data as given in patent EP0229128B1, “DERIVATIVES OF GLYCERO-3(2)-PHOSPHO-L-SERINE AND PHARMACEUTICAL PREPARATIONS CONTAINING THEM” (CL PHARMA AKTIENGESELLSCHAFT, priority 1985, dated 1987).

System: Ehrlich-Ascites-Tumorzellen
Assay: Inhibition of proliferation of Ehrlich ascites tumour cells in vitro
Format: cell-based
Conditions: read-out: Hemmung der Proliferation (%) von Ehrlich-Ascites-Tumorzellen in vitro, % Hemmung; for inhibition at 1 µM: Konzentration 1 µM; for inhibition at 2 µM: Konzentration 2 µM; for inhibition at 5 µM: Konzentration 5 µM; for inhibition at 10 µM: Konzentration 10 µM; for inhibition at 20 µM: Konzentration 20 µM; for inhibition at 100 µM: Konzentration 100 µM
From the text: Die Verbindungen der allgemeinen Formel I und Salze davon sind biologisch hochaktiv und besitzen insbesondere eine ausgeprägte Antitumorwirksamkeit. Diese wertvollen pharmakologischen Eigenschaften können in vitro und in vivo unter Verwendung von Standardmethoden nachgewiesen werden, beispielsweise indem die Hemmung der Proliferation von Ehrlich-Ascites-Tumorzellen in vitro unter Einwirkung von Glycero-3(2)-phospho-L-serinderivaten der allgemeinen Formel I bestimmt wird. • In diesem Test (Tabelle I) bewirken die erfindungsgemäßen Verbindungen, beispielsweise • 1-0-Hexadecyl-2-chlor-2-desoxy-glycero-3-phospho-L-serin (Verbindung Nr. 1) • 1-0-Hexadecyl-2-fluor-2-desoxy-glycero-3-phospho-L-serin (Verbindung Nr. 2) • 1-Chlor-1-desoxy-3-0-hexadecyl-glycero-2-phospho-L-serin (Verbindung Nr. 3) • 1-0-(2,2,2-Trifluorethy)-2-0-hexadecyl-glycero-3-phospho-L-serin (Verbindung Nr. 4), schon in sehr geringen Konzentrationen eine signifikante Hemmung des Zellwachstums von Ehrlich-Ascites-Tumorzellen.

Row | Structure (SMILES) | inhibition at 1 µM | inhibition at 2 µM | inhibition at 5 µM | inhibition at 10 µM | inhibition at 20 µM | inhibition at 100 µM
1 | CCCCCCCCCCCCCCCCOCC(CCl)OP(=O)(O)OC[C@H](N)C(=O)O (stereo partly drawn) [Verbindung Nr. 3, 1-Chlor-1-desoxy-3-O-hexadecyl-glycero-2-phospho-L-serin] | 15% | 17% | 38% | 68% | 81% | 93%
2 | CCCCCCCCCCCCCCCCCCOCC(COP(=O)([O-])OCC[N+](C)(C)C)OC (stereo not shown) [V, 1-O-Octadecyl-2-O-methyl-glycero-3-phosphocholin, reference compound] | 0% | 0% | 4% | 23% | 62% | 100%
3 | CCCCCCCCCCCCCCCCOCC(F)COP(=O)(O)OC[C@H](N)C(=O)O (stereo partly drawn) [Verbindung Nr. 2, 1-O-Hexadecyl-2-fluor-2-desoxy-glycero-3-phospho-L-serin] | 10% | 13% | 18% | 51% | 82% | 95%
4 | CCCCCCCCCCCCCCCCOCC(Cl)COP(=O)(O)OC[C@H](N)C(=O)O (stereo partly drawn) [Verbindung Nr. 1, 1-O-Hexadecyl-2-chlor-2-desoxy-glycero-3-phospho-L-serin] | 16% | 10% | 30% | 55% | 80% | 95%
5 | CCCCCCCCCCCCCCCCOC(COCC(F)(F)F)COP(=O)(O)OC[C@H](N)C(=O)O (stereo partly drawn) [Verbindung Nr. 4, 1-O-(2,2,2-Trifluorethyl)-2-O-hexadecyl-glycero-3-phospho-L-serin] |  |  | 10% | 36% | 74% | 100%
